Measured values reported in patent publication US20170320870A1 (Medical Research Council Technology, priority 2009, published 2017).

Columns and labels:
Experiment in all cases: Kinase selectivity: percentage inhibition of each specific kinase at 1 μM inhibitor concentration
Assay type in all cases: biochemical
[1] = molecular target: each specific kinase (kinase selectivity panel, Table 2) (Homo sapiens, UniProt O00141); details: SGK1
Description: (§1) Values are expressed as percentage inhibition of the each specific kinase at 1 μM inhibitor concentration.

[2] = molecular target: each specific kinase (kinase selectivity panel, Table 2) (Homo sapiens, UniProt Q15831); details: LKB1
each specific kinase (kinase selectivity panel, Table 2) (Homo sapiens, UniProt Q15831), sequence (Q15831 whole entry): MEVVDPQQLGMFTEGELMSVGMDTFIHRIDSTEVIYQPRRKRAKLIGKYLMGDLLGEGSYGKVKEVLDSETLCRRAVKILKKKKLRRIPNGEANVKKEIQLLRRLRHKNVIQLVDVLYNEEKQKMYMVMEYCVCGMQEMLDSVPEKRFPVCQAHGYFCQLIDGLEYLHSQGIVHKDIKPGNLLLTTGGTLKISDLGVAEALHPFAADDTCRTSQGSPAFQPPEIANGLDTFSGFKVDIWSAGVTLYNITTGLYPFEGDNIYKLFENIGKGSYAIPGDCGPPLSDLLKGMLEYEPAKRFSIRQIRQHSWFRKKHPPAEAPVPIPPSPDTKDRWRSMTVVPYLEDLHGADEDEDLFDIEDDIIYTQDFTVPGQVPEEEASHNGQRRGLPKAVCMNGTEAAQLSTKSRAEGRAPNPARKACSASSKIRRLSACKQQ
Description: as §1

[3] = molecular target: each specific kinase (kinase selectivity panel, Table 2) (Homo sapiens, UniProt Q15746); details: SmMLCK
Description: as §1

[4] = molecular target: each specific kinase (kinase selectivity panel, Table 2) (Homo sapiens, UniProt Q16584); details: MLK3
Description: as §1

[5] = molecular target: each specific kinase (kinase selectivity panel, Table 2) (Homo sapiens, UniProt P45984); details: JNK2
Description: as §1

[6] = molecular target: each specific kinase (kinase selectivity panel, Table 2) (Homo sapiens, UniProt Q02750); details: MKK1
each specific kinase (kinase selectivity panel, Table 2) (Homo sapiens, UniProt Q02750), sequence (Q02750 whole entry): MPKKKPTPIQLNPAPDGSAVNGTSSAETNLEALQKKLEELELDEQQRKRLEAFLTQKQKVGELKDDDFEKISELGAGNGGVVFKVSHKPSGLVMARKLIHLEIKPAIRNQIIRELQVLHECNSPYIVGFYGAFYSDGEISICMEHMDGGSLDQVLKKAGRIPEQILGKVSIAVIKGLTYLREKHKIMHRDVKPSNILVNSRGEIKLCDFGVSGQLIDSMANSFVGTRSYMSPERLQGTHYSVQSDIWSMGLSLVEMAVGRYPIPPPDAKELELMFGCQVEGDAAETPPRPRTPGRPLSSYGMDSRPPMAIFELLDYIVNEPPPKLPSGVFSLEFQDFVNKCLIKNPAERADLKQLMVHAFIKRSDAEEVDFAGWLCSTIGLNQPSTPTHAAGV
Description: as §1

[7] = molecular target: each specific kinase (kinase selectivity panel, Table 2) (Homo sapiens, UniProt Q14164); details: IKKe
Description: as §1

[8] = molecular target: each specific kinase (kinase selectivity panel, Table 2) (Homo sapiens, UniProt P31751); details: PKBb
each specific kinase (kinase selectivity panel, Table 2) (Homo sapiens, UniProt P31751), sequence (P31751 whole entry): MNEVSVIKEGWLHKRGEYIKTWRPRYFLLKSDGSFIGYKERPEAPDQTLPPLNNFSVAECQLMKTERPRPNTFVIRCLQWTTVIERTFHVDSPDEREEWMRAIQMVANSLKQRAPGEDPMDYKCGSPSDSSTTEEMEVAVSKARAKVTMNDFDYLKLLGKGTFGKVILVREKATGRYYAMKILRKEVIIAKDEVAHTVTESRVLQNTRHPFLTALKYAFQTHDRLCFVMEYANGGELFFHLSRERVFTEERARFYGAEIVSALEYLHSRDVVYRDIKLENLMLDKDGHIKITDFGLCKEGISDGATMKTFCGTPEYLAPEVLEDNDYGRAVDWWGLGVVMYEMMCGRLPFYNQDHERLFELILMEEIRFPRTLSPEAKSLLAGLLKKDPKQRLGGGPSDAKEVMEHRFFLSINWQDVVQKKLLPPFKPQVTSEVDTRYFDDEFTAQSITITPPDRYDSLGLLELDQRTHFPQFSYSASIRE
Description: as §1

[9] = molecular target: each specific kinase (kinase selectivity panel, Table 2) (Homo sapiens, UniProt Q16513); details: PRK2
Description: as §1

[10] = molecular target: each specific kinase (kinase selectivity panel, Table 2) (Homo sapiens, UniProt Q14012); details: CAMK1
Description: as §1

[11] = molecular target: each specific kinase (kinase selectivity panel, Table 2) (Homo sapiens, UniProt Q96SB4); details: SRPK1
Description: as §1

[12] = molecular target: each specific kinase (kinase selectivity panel, Table 2) (Homo sapiens, UniProt P68400); details: CK2
each specific kinase (kinase selectivity panel, Table 2) (Homo sapiens, UniProt P68400), sequence (P68400 whole entry): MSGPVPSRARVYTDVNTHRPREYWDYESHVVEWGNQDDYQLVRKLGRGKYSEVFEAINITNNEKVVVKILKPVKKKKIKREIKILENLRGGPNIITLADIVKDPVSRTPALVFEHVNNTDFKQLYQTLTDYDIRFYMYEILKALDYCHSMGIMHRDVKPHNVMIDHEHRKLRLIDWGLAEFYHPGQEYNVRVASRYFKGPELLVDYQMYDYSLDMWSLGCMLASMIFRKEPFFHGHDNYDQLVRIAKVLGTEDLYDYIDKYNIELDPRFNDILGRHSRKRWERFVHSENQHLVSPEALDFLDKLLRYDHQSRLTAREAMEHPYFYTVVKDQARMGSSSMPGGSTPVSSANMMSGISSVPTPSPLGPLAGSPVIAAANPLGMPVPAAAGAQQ
Description: as §1

[13] = molecular target: each specific kinase (kinase selectivity panel, Table 2) (Homo sapiens, UniProt P45983); details: JNK1
each specific kinase (kinase selectivity panel, Table 2) (Homo sapiens, UniProt P45983), sequence (P45983 whole entry): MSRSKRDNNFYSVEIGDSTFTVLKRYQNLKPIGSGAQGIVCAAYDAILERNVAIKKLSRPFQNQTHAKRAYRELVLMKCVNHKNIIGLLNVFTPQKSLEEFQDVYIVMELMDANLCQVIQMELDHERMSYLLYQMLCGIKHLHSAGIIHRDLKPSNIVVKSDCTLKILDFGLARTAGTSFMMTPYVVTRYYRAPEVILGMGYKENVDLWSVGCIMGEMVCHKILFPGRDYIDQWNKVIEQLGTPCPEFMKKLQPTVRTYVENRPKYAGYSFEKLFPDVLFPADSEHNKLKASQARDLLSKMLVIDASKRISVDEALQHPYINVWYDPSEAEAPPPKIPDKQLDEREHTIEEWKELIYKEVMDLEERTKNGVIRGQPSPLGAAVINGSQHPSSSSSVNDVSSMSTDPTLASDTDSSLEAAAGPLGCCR
Description: as §1

[14] = molecular target: each specific kinase (kinase selectivity panel, Table 2) (Homo sapiens, UniProt Q13233); details: MEKK1
Description: as §1

[15] = molecular target: each specific kinase (kinase selectivity panel, Table 2) (Homo sapiens, UniProt O43353); details: RIPK2
each specific kinase (kinase selectivity panel, Table 2) (Homo sapiens, UniProt O43353), sequence (O43353 whole entry): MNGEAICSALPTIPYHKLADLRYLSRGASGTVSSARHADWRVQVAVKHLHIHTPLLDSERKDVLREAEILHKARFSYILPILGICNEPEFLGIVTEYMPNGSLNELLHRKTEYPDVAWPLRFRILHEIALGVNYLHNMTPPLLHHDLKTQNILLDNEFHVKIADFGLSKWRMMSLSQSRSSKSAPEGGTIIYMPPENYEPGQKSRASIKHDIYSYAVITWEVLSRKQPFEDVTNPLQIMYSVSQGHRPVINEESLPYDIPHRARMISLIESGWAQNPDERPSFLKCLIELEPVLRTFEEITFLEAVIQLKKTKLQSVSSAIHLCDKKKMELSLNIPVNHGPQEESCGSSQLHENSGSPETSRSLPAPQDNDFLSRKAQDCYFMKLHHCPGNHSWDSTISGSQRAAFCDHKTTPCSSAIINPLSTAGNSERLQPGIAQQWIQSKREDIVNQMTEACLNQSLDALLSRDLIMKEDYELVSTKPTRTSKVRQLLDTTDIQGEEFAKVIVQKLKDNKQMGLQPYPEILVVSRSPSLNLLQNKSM
Description: as §1

[16] = molecular target: each specific kinase (kinase selectivity panel, Table 2) (Homo sapiens, UniProt O43318); details: TAK1
each specific kinase (kinase selectivity panel, Table 2) (Homo sapiens, UniProt O43318), sequence (O43318 whole entry): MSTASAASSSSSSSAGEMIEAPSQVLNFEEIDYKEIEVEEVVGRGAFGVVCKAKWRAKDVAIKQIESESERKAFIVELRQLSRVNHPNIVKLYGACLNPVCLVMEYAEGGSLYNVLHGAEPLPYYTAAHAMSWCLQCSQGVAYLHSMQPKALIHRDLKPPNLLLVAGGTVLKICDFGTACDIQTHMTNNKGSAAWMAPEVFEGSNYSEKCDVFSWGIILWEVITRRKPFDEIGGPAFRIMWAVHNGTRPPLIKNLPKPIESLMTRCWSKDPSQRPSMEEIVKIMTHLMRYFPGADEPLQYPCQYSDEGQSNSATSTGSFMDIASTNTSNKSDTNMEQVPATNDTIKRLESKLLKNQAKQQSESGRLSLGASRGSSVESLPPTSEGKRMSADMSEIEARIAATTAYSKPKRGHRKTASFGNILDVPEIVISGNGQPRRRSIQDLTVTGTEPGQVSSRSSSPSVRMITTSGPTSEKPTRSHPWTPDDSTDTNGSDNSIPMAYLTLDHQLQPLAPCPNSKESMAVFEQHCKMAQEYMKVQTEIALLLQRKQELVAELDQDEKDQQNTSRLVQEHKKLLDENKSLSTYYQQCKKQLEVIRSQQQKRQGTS
Description: as §1

[17] = molecular target: each specific kinase (kinase selectivity panel, Table 2) (Homo sapiens, UniProt P17612); details: PKA
Description: as §1

[18] = molecular target: each specific kinase (kinase selectivity panel, Table 2) (Homo sapiens, UniProt Q96RR4); details: CAMKKb
Description: as §1

[19] = molecular target: each specific kinase (kinase selectivity panel, Table 2) (Homo sapiens, UniProt P31749); details: PKBa
Description: as §1

[20] = molecular target: each specific kinase (kinase selectivity panel, Table 2) (Homo sapiens, UniProt Q15303); details: HER4
Description: as §1

[21] = molecular target: each specific kinase (kinase selectivity panel, Table 2) (Homo sapiens, UniProt Q96GD4); details: Aurora B
each specific kinase (kinase selectivity panel, Table 2) (Homo sapiens, UniProt Q96GD4), sequence (Q96GD4 whole entry): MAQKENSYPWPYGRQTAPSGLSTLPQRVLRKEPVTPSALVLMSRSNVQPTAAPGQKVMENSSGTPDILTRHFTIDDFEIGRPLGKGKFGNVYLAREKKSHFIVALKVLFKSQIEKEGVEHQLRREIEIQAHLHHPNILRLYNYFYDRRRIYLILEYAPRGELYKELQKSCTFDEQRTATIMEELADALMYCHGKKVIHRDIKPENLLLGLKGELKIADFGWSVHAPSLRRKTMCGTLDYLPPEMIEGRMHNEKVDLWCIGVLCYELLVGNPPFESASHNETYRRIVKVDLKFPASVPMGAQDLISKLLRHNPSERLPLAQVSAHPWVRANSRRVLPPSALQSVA
Description: as §1

[22] = molecular target: each specific kinase (kinase selectivity panel, Table 2) (Homo sapiens, UniProt P80192); details: MLK1
Description: as §1

[23] = molecular target: each specific kinase (kinase selectivity panel, Table 2) (Homo sapiens, UniProt P43405); details: SYK
Description: as §1

[24] = molecular target: each specific kinase (kinase selectivity panel, Table 2) (Homo sapiens, UniProt O75582); details: MSK1
Description: as §1

[25] = molecular target: each specific kinase (kinase selectivity panel, Table 2) (Homo sapiens, UniProt P33981); details: TTK
Description: as §1

[26] = test system: each specific kinase (kinase selectivity panel, Table 2)
Description: as §1

[27] = molecular target: each specific kinase (kinase selectivity panel, Table 2) (Homo sapiens, UniProt O14965); details: Aurora A
Description: as §1

[28] = molecular target: each specific kinase (kinase selectivity panel, Table 2) (Homo sapiens, UniProt Q06187); details: BTK
Description: as §1

[29] = molecular target: each specific kinase (kinase selectivity panel, Table 2) (Homo sapiens, UniProt P29317); details: EPH-A2
Description: as §1

[30] = molecular target: each specific kinase (kinase selectivity panel, Table 2) (Homo sapiens, UniProt P49841); details: GSK3b
Description: as §1

[31] = molecular target: each specific kinase (kinase selectivity panel, Table 2) (Homo sapiens, UniProt P23443); details: S6K1
Description: as §1

[32] = molecular target: each specific kinase (kinase selectivity panel, Table 2) (Rattus norvegicus, UniProt Q62868); details: ROCK 2
each specific kinase (kinase selectivity panel, Table 2) (Rattus norvegicus, UniProt Q62868), sequence (Q62868 whole entry): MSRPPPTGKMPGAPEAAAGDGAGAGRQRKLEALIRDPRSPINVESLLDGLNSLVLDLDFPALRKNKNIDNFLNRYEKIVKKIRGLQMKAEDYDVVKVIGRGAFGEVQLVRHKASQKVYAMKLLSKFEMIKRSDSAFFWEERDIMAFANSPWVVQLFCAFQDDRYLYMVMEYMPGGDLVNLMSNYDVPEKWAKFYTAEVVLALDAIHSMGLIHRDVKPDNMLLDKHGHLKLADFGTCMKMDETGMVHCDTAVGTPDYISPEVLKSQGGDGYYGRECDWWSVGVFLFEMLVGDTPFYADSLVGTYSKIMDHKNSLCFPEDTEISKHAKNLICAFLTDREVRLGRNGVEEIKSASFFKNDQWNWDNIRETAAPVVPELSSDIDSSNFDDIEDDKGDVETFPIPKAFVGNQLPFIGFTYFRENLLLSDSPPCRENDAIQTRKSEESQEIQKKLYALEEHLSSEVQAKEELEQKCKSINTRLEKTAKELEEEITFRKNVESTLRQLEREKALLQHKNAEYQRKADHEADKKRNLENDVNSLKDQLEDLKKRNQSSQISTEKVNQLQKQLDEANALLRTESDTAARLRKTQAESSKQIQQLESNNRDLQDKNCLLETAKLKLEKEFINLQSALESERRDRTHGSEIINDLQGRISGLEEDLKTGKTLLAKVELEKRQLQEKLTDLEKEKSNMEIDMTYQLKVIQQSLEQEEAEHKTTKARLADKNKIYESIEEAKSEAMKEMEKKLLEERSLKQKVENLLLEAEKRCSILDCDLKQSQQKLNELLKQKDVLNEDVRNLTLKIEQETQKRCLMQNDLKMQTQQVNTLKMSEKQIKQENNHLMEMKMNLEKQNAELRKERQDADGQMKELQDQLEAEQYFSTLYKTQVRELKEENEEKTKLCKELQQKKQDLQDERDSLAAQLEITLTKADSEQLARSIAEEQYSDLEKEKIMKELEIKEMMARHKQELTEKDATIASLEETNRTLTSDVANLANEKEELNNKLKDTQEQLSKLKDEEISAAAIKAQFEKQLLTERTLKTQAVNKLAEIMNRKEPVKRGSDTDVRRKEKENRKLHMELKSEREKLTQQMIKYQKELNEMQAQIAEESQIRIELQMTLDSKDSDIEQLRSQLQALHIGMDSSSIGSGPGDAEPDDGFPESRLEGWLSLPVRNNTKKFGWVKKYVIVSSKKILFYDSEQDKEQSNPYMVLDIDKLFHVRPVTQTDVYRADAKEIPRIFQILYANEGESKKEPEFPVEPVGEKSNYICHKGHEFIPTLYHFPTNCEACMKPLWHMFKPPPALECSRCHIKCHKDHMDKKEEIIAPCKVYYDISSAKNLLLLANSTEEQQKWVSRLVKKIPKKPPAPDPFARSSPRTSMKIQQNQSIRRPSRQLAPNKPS
Description: as §1

[33] = molecular target: each specific kinase (kinase selectivity panel, Table 2) (Homo sapiens, UniProt P27448); details: MARK3
Description: as §1

[34] = molecular target: each specific kinase (kinase selectivity panel, Table 2) (Homo sapiens, UniProt O14757); details: CHK1
Description: as §1

Row | SMILES | percentage inhibition of SGK1 [1] [percentage] | percentage inhibition of LKB1 [2] [percentage] | percentage inhibition of SmMLCK [3] [percentage] | percentage inhibition of MLK3 [4] [percentage] | percentage inhibition of JNK2 [5] [percentage] | percentage inhibition of MKK1 [6] [percentage] | percentage inhibition of IKKe [7] [percentage] | percentage inhibition of PKBb [8] [percentage] | percentage inhibition of PRK2 [9] [percentage] | percentage inhibition of CAMK1 [10] [percentage] | percentage inhibition of SRPK1 [11] [percentage] | percentage inhibition of CK2 [12] [percentage] | percentage inhibition of JNK1 [13] [percentage] | percentage inhibition of MEKK1 [14] [percentage] | percentage inhibition of RIPK2 [15] [percentage] | percentage inhibition of TAK1 [16] [percentage] | percentage inhibition of PKA [17] [percentage] | percentage inhibition of CAMKKb [18] [percentage] | percentage inhibition of PKBa [19] [percentage] | percentage inhibition of HER4 [20] [percentage] | other results
1 | CC[C@H](C)Oc1nccc2[nH]nc(C)c12 [Example 121, 4-((S)-sec-Butoxy)-3-methyl-1H-pyrazolo[4,3-c]pyridine] | 23 | 42 | 22 | 23 | 0 | 47 | 19 | 3 | 39 | 5 | 21 | 0 | 7 | 0 | 1 | 72 | 26 | 12 | 19 | 0 | percentage inhibition of Aurora B [21]: 0 percentage; percentage inhibition of MLK1 [22]: 19 percentage; percentage inhibition of SYK [23]: 0 percentage; percentage inhibition of MSK1 [24]: 48 percentage; percentage inhibition of TTK [25]: 30 percentage; percentage inhibition of AMPK [26]: 29 percentage; percentage inhibition of PHK [26]: 7 percentage; percentage inhibition of Aurora A [27]: 46 percentage; percentage inhibition of BTK [28]: 0 percentage; percentage inhibition of EPH-A2 [29]: 8 percentage; percentage inhibition of GSK3b [30]: 25 percentage; percentage inhibition of S6K1 [31]: 0 percentage; percentage inhibition of ROCK 2 [32]: 57 percentage; percentage inhibition of MARK3 [33]: 12 percentage; percentage inhibition of CHK1 [34]: 10 percentage
2 | O=C(CCc1n[nH]c2ccnc(NC3CCCCC3)c12)N1CCC[C@H](c2ccccc2)C1 [Example 172, 3-(4-Cyclohexylamino-1H-pyrazolo[4,3-c]pyridin-3-yl)-1-((R)-3-phenyl-piperidin-1-yl)-propan-1-one] | 1 | 8 | 18 | 29 | 22 | 17 | 17 | 0 | 16 | 14 | 17 | 3 | 17 | 7 | 0 | 9 | 5 | 21 | 0 | 10 | percentage inhibition of Aurora B [21]: 15 percentage; percentage inhibition of MLK1 [22]: 13 percentage; percentage inhibition of SYK [23]: 4 percentage; percentage inhibition of MSK1 [24]: 1 percentage; percentage inhibition of TTK [25]: 14 percentage; percentage inhibition of AMPK [26]: 0 percentage; percentage inhibition of PHK [26]: 26 percentage; percentage inhibition of Aurora A [27]: 0 percentage; percentage inhibition of BTK [28]: 12 percentage; percentage inhibition of EPH-A2 [29]: 0 percentage; percentage inhibition of GSK3b [30]: 5 percentage; percentage inhibition of S6K1 [31]: 14 percentage; percentage inhibition of ROCK 2 [32]: 7 percentage; percentage inhibition of MARK3 [33]: 18 percentage; percentage inhibition of CHK1 [34]: 0 percentage
